# Data as given in patent US7875586B2 (priority 2002, dated 2011).
# Entries after “also recorded” stand apart in the source; their conditions may differ. Peptide text beside a SMILES is read from it. * marks the point of attachment. Cbz = O=C(OCc1ccccc1)*; CH2F = FC*
# How the values were obtained:
# Format in all cases: cell-based, human
# living Caco-2 cells = test system: living Caco-2 cells
# Caco-2 cells [1] = test system: Caco-2 cells
# Caco-2 cells [2] = test system: Caco-2 cells; remark: listed apart in the source
# T-84 cells = test system: T-84 cells
structure (smiles),measurement,setting,value
C[C@@H](N)[C@H]1CC[C@H](C(=O)Nc2ccncc2)CC1 [Y-27632],Cell morphology,living Caco-2 cells,pronounced effects
same,Filopodia and filopodia-mediated cell-cell contacts,living Caco-2 cells,did not change
COC(=O)C[C@H](NC(=O)[C@H](C)NC(=O)[C@@H](NC(=O)OCc1ccccc1)C(C)C)C(=O)CF [z-VAD-fink] (Cbz-Val-Ala-Asp(OMe)-CH2F),Effect of caspase inhibition on DNA fragmentation caused by Stx1B,Caco-2 cells [1],decreased DNA fragmentation; also recorded: Inhibition of apoptotic DNA fragmentation
"CCCCCCCCCCCCCCCC(=O)NC(CN1CCOCC1)C(O)c1ccccc1 (stereo not drawn) [PPMP, threo-1-phenyl-2-palmitoylamino-3-morpholino-1-propanol]",Subpopulation of Gb3 enriched cells with filopodia on the leading edge,Caco-2 cells [2],completely eliminated
same,Subpopulation of Gb3 enriched cells with filopodia on the leading edge,T-84 cells,completely eliminated
